Test results as given in US20230172897A1, “METHODS OF TREATING BREAST CANCERS WITH SELECTIVE ANDROGEN RECEPTOR MODULATORS AND ADDITIONAL THERAPEUTIC AGENTS” (VERU, INC., priority 2021, published 2023).
“And” between values parts separate entries of the source, which are not always exact repeats. Equal values may be shown once.

Experiments:
[1] = tested on: ER-positive metastatic breast cancer; experiment: Phase 2 clinical trial (G200801), 9 mg daily; assay type: in vivo, women
Method: The goal of this study was to determine the importance of the AR status as a therapeutic target in women with ER-positive metastatic breast cancer (MBC) that had previously responded to hormone therapy. The treatment was continued until disease progression (PD).
CBR will be correlated with AR status of metastatic tumor biopsy.
Serum prostate specific antigen (PSA) was evaluated as a biomarker of AR activity.
Female subjects with ER-positive metastatic breast cancer who have previously been treated with up to 3 prior hormonal therapies for the treatment of breast cancer. Subjects must have been treated with and responded to previous adjuvant therapy for ≥3 years or hormonal therapy for metastatic disease for >6 months prior to progression. Details of subject selection criteria are presented below:
Measurable and non-measurable lesions (primary and/or metastatic) were identified and assessed by a modified Response Evaluation Criteria In Solid Tumors (RECIST 1.1) classification over the course of this study (described in detail below).
The primary efficacy analysis was the clinical benefit in subjects with AR-positive breast cancer at 6 months as measured by a modified Response Evaluation Criteria In Solid Tumors (RECIST 1.1) classification. Key secondary endpoints of clinical benefit in all subjects and AR-negative subjects, as well as objective response rate, progression free survival, time to progression, duration of response, incidence of SREs, and time to first SRE in subsets based on AR status (i.e., all subjects, AR-positive subjects, and AR-negative subjects) was also assessed. Effects on CA 27-29, PSA, bone turnover markers, QOL, and libido were assessed as tertiary endpoints.
Clinical benefit in a subject is defined as a complete response [CR], a partial response [PR] or stable disease [SD] as measured by modified RECIST 1.1, which is described in detail below. (Eisenhauer E A et al. New response evaluation criteria in solid tumors: revised RECIST guideline (version 1.1). European Journal of Cancer 45:228-247, 2009).

[2] = Phase 3 trials, muscle wasting in non-small cell lung cancer; assay type: in vivo, human; details: 3 mg daily
From the text: These include: 1. Protocol G100401, a Phase 1 single ascending dose study in 96 healthy, young, male volunteers; 2. Protocol G100402, a Phase 1 multiple ascending dose study in 50 healthy, young, male volunteers, and 23 elderly male volunteers with truncal obesity; 3. Protocol G100503, a Phase 1 single dose pharmacokinetic study to assess the effect of a dosage regimen that simulates a sustained release formulation to an immediate release formulation in 18 healthy, young male volunteers and 18 postmenopausal women; 4. Protocol G100506, a Phase 1 single dose pharmacokinetic study to assess the relative bioavailability of a 3 mg hard shell capsule formulation to be used during continued clinical development and to assess the effect of food on the pharmacokinetics of the 3 mg softgel formulation in 27 healthy, young, male volunteers; 5. Protocol 006, a Phase 1 single dose and multiple dose pharmacokinetic study in 24 postmenopausal, Japanese women; 6. Protocol G200501, a Phase 2 study in 60 postmenopausal women and 60 elderly men to assess lean body mass and physical function; 7. Protocol 003, a Phase 1b study in 44 postmenopausal women; 8.

MCF-7-AR cells = experiment: Growth assay (SRB), MCF-7 stably transfected with AR or GFP; assay type: cell-based; details: 6 days
Method: After 6 days of treatment, cells were harvested, and the number of cells was counted. […] Medium was changed after 3 days and re-treated. Cells were fixed after 6 days of treatment and the cell viability was measured by SRB assay. […] Medium was changed, and the cells were re-treated on days 4 and 7. Medium was collected, pooled from triplicates, and stored in −80° C. After 10 days of treatment, cells were fixed, and cell viability was measured using SRB. MCF-7 cells stably transfected with GFP (MCF-7-GFP) were plated in growth medium. Twenty-four hours after plating, cells were fed with the conditioned medium obtained from patient-derived fibroblasts as indicated above. Cells were fed for 10 days with conditioned medium, with medium changed on days 4 and 7. After 10 days of treatment, cells were fixed, and the viability was measured by SRB assay. […] AR-positive, but ER-negative HCI-9 PDX was surgically implanted as 1 mm^3 fragments under the mammary fat pad in NSG mice (n=8-10/group). […] Tumor volume was measured thrice weekly. […] ER-α from HCI-13 was cloned into pCR3.1 vector. […] Values are expressed as average ±S.E. from n=3-4/data point.
Cells were plated at varying densities in growth medium in 96 well plates. Cells were treated as indicated in the figures and viability measured using sulforhodamine B (SRB) or the number of cells counted using Coulter counter.

[3] = 9 mg daily, individual patients

## C[C@](O)(COc1ccc(C#N)cc1)C(=O)Nc1ccc(C#N)c(C(F)(F)F)c1 [Formula IX, (S)—N-(4-Cyano-3-(trifluoromethyl)phenyl)-3-(4-cyanophenoxy)-2-hydroxy-2-methylpropanamide]
[1]; 9 mg daily
  CR or PR: no CR or PR has been observed
  adverse event: A-fib: 1
  adverse event: anxiety/emotional changes: 5
  adverse event: arthralgia: 6
  adverse event: bloating: 2
  adverse event: bruising: 1
  adverse event: cellulitis: 1
  adverse event: chills: 1
  adverse event: constipation: 2
  adverse event: cough: 1
  adverse event: dehydration: 1
  adverse event: diarrhea: 3
  adverse event: dizziness: 2
  adverse event: dysgeusia: 1
  adverse event: dyspepsia: 1
  adverse event: dyspnea: 3
  adverse event: edema: 2
  adverse event: fatigue: 14
  adverse event: fever: 1
  adverse event: flatulence: 1
  adverse event: glaucoma: 1
  adverse event: headache: 4
  adverse event: hot flash night sweats: 7
  adverse event: hypertension: 2
  adverse event: infection: 1
  adverse event: insomnia: 2
  adverse event: myalgia: 5
  adverse event: nail discoloration: 1
  adverse event: nausea: 11
  adverse event: pain: 22
  adverse event: paresthesia: 1
  adverse event: pleural effusion: 1
  adverse event: polyuria: 1
  adverse event: post menopausal bleeding: 3
  adverse event: stiffness: 1
  adverse event: tendonitis: 1
  adverse event: vision changes: 3
  adverse event: vomiting: 2
  adverse event: weight gain: 2
  adverse event: weight loss: 2
  duration of stable disease, one ongoing subject: > 336 days
  liver enzymes (ALT, AST and bilirubin): returned to baseline
  median duration of SD as best response: 212 days
  median time to PD: 80 days
  patients who reached 6 m that are AR-positive with SD and increased PSA: six
  patients with increased PSA levels: 20 of the 22
  subjects with progressive disease at 6 months or prior: N = 12
  tolerability: well-tolerated
[1]; 9 mg daily, 22 patients
  patients with PD (current disposition): 15
  patients with SD (current disposition): 4
[1]; 9 mg daily, all subjects
  subjects achieving CB as best response: 41%
[1]; [3]
  Current Disposition: D/C (2×) and Deceased (4×)
  Day 84 RECIST: D/C SAE and PD SAE and D/C
  MAX PSA F/U: 2.430 and 0.058 and 0.008 and <0.007 and 0.078 and 0.217 and 9.610 and 0.450 and 3.540 and 0.238 and 8.180 and 0.548 and 0.062 and 0.024 and 13.160 and 0.069 and 0.031 and 0.795 and 0.301 and 0.028 and 0.046 and 0.092
[1]; 9 mg daily, listed as Enobosarm
  tolerability: well tolerated
[1]; 9 mg daily, single target lesion
  tumor regression in one subject with SD: 27%
[1]; 9 mg oral daily
  6-month Kaplan-Meier estimate for radiographic progression free survival: 43.8%
  clinical benefit rate at 6 months: 35.3%
[1]; Day 84
  Progression free probability: 57.5%
[1]; Day 168
  Progression free probability: 50.5%
[1]; seven subjects who achieved CB at six months
  time to progression (TTP): 10.2 months
[2]
  lean body mass: increased
MCF-7-AR cells
  proliferation of MCF-7 cells expressing AR: inhibited proliferation
